In brackets after ≈: the same amount, converted by molar mass. Where a name gives a salt, the structure may show the parent alone. Read-outs that look alike come from different tables or passages of the source.
What was measured:
[1] = tested on: Bacillus anthracis Sterne; experiment: microbe, parasite or virus in culture; format: cell-based; details: for MIC: Bacillus anthracis
B. anthracis NADs = B. anthracis NADs (Bacillus anthracis, UniProt Q81RP3); format: biochemical
[2] = In vivo toxicity, maximum tolerated dose; details: female, BALB/c, mouse, intraperitoneal
IMR90 = experiment: In vitro inhibition of normal human cells; format: cell-based; details: IMR-90
MDA-MB-436 = experiment: In vitro human breast cancer cell growth inhibition; format: cell-based
HCC1937 = experiment: as above; format: cell-based
HEK293 = experiment: In vitro inhibition of normal human cells; format: cell-based
Hep-G2 = experiment: In vitro inhibition of normal human cells; format: cell-based; details: HepG2
hNaMNAT-1 = hNaMNAT-1 (Homo sapiens, UniProt Q9HAN9); experiment: Human NAMNAT inhibition in vitro; format: biochemical
BEAS-23 = experiment: In vitro inhibition of normal human cells; format: cell-based; details: read-out: In Vitro Inhibition Normal Human Cells (IC50, μM) BEAS-23
SUM159 = experiment: In vitro human breast cancer cell growth inhibition; format: cell-based
[3] = MDA-MB-436 cells, read-out: In Vitro Human Breast Cancer Inhibition (IC50, μM) MDA-MB-436
[4] = HCC1937 cells, read-out: In Vitro Human Breast Cancer Inhibition (IC50, μM) HCC1937
[5] = SUM159 cells, read-out: In Vitro Human Breast Cancer Inhibition (IC50, μM) SUM159

Chain of B. anthracis NADs (Q81RP3 whole entry, looked up): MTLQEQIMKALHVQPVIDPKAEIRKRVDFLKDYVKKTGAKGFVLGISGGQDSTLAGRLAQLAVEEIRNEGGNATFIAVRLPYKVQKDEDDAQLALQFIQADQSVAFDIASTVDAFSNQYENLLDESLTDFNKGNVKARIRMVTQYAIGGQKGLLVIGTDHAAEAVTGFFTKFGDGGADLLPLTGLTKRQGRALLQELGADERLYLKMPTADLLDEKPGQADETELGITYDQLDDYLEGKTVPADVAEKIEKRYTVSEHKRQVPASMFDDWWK
Chain of hNaMNAT-1 (Q9HAN9 whole entry): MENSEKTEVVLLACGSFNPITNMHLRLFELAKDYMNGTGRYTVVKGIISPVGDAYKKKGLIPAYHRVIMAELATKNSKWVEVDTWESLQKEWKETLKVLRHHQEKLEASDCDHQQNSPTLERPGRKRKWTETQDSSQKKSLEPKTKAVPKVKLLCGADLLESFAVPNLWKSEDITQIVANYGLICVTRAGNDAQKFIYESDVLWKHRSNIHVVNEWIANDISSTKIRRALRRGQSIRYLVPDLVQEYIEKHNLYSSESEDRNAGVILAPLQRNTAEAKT

Row | Structure (SMILES) | MIC ([1]; read-out: B.a. MIC (μM)) [µM] | IC50 (B. anthracis NADs; read-out: IC50) [µM] | IC50 (B. anthracis NADs; read-out: NADs IC50) [µM] | other results
1 | O=C(O)c1cn(C2CC2)c2cc(N3CCNCC3)c(F)cc2c1=O [Cipro, ciprofloxacin hydrochloride, reference compound] | 0.5 |  |  | 
2 | Cc1ccc(-c2nc3cc(Cl)ccc3o2)cc1CC(=O)c1cc([N+](=O)[O-])c(C)c([N+](=O)[O-])c1 [Compound 5588] | > 240 | 78.5 | 84 ± 35 | MIC ([1]; 5 h, read-out: MIC100 (μM)): > 215 µM
3 | O=C1C=C(Nc2ccccc2C(=O)O)C(=O)C=C1Nc1ccccc1C(=O)O [Compound 5589] | > 264 | 137 | 118 ± 67 | 
4 | O=[N+]([O-])c1ccc(-c2cnc(N/N=C/c3cccc([N+](=O)[O-])c3)nc2)cc1 [Compound 5591] | > 274 | 160 | 160 ± 57 | 
5 | CCOC(=O)C1=C(Nc2cccc3ccccc23)S/C(=C\c2ccc([N+](=O)[O-])cc2)C1=O [Compound 5597] | > 224 | 86.1 | 86 ± 33 | 
6 | CCc1ccc(S(=O)(=O)Nc2c([N+](=O)[O-])ccc3ccccc23)cc1 [Compound 5599] |  |  |  | MIC ([1]; 5 h, read-out: MIC100 (μM)): 3.75 µM (≈ 1.34 µg/mL)
7 | O=C(CCC(=O)Nc1ccc(Nc2ccccc2)cc1)Nc1ccc(Nc2ccccc2)cc1 [Compound 5604] | > 222 | 141 | 256 ± 210 | 
8 | O=C(Nc1ccc([N+](=O)[O-])cc1)c1ccc(-c2nnc(-c3ccccc3)o2)cc1 [Compound 5605] | > 259 | 146 | 146 ± 0.2 | MIC ([1]; 5 h, read-out: MIC100 (μM)): > 259 µM
9 | O=C(COC(=O)c1ccc(NC(=O)c2ccc([N+](=O)[O-])cc2)cc1)c1ccc(F)cc1 [Compound 5606] | > 237 | 141 | 176 ± 49 | 
10 | COc1ccc(CCNC(=O)NCc2cccc(CNC(=O)NCCc3ccc(OC)cc3)c2)cc1 [Compound 5609] | > 204 | 70 | 70 | 
11 | O=C(Cn1cc(/C=C/c2[nH]c(=O)[nH]c(=O)c2[N+](=O)[O-])c2ccccc21)Nc1ccc(F)cc1 [Compound 5615] |  | 55.4 | 55.4 | MIC ([1]; 5 h, read-out: MIC100 (μM)): > 223 µM
12 | Nc1ncnc(Nc2ccc(Cl)cc2C(=O)c2ccccc2Cl)c1[N+](=O)[O-] [Compound 5616] | > 247 | 208 | 231 ± 36 | 
13 | O=C(Nc1ccc(S(=O)(=O)Nc2ncccn2)cc1)Nc1ccc(Cl)c(Cl)c1 [Compound 5617] | 15 (≈ 6.57 µg/mL) |  |  | activity against B. anthracis (in words) [1]: good activities
14 | O=[N+]([O-])c1ccc(O)c(/C=N/c2cccc(O)c2)c1 [Compound 5660] | > 387 | 22.5 | 22.5 | 
15 | NC(=O)c1ccc(/N=C/c2cc([N+](=O)[O-])ccc2Cl)cc1 [Compound 5679] | > 329 | 262 | 262 ± 8 | 
16 | O=C(Nc1cccc(/N=C/c2cc([N+](=O)[O-])ccc2O)c1)c1cccc(Br)c1 [Compound 5684] | > 227 | 99.5 | 99 ± 12 | 
17 | O=C(Nc1cccc(/N=C/c2cc([N+](=O)[O-])ccc2O)c1)c1ccc(Cl)cc1Cl [Compound 5691] | > 232 | 106 | 106 ± 2 | 
18 | COc1ccc(NC(=O)Nc2cccc(NC(=O)Nc3ccc(OC)cc3)c2F)cc1 [Compound 5707] | > 240 | 253 | 253 ± 65 | 
19 | Cc1ccc(C(=O)Nc2cccc(-c3nc4ccccc4[nH]3)c2)cc1 [Compound 5710] | > 240 | 128 | 189 ± 86 | 
20 | COc1ccc(Oc2ccc([N+](=O)[O-])cc2C(=O)Nc2ccc(S(N)(=O)=O)cc2)cc1 [Compound 5724] | > 240 | 291 | 291 ± 29 | 
21 | Cc1cc(-c2nnc(CSc3nnc(NC(=O)c4ccc(F)c(Cl)c4)s3)o2)ccc1[N+](=O)[O-] [Compound 5731] | > 240 | 271 | 270 ± 3 | 
22 | COc1ccccc1NC(=O)NC(=O)c1ccc(-c2csnn2)cc1 [Compound 5737] | > 240 | 235 | 235 ± 71 | 
23 | Cc1onc(-c2ccccc2)c1NC(=O)Nc1ccc(Oc2ncnc3cc(Cl)ccc23)nc1 [Compound 5763] | > 240 | 232 | 232 ± 55 | 
24 | COc1ccc(NC(=O)Nc2ccc(Oc3ncnc4cc(Cl)ccc34)nc2)cc1OC1CCCC1 [Compound 5764] | > 240 | 97.2 | 97 ± 55 | 

Row | Structure (SMILES) | MIC ([1]; read-out: B.a. MIC (μM)) [µM] | IC50 (B. anthracis NADs; read-out: IC50) [µM] | IC50 (B. anthracis NADs; read-out: NADs IC50) [µM] | other results
25 | Nc1c(C(=O)c2ccc([N+](=O)[O-])cc2)sc(Nc2ccccc2)c1-c1nc2ccccc2[nH]1 [Compound 5768] | > 240 | 170 | 170 ± 48 | 
26 | N/C(=N\OC(=O)c1ccc(Cl)c(Cl)c1)c1cccc(CSc2ccccn2)c1 [Compound 5775] | > 240 | 290 | 290 | 
27 | O=C(Nc1ccc(/N=N/c2ccccc2)cc1)c1ccc([N+](=O)[O-])cc1 [Compound 5792] | > 240 | 76 | 76 ± 13 | 
28 | O=C(Nc1ccccc1)Nc1ccc(NC(=O)c2ccc(NC(=O)Nc3ccccc3)cc2)cc1 [Compound 5793] | > 240 | 78.8 | 79 ± 38 | 
29 | O=C(Nc1ccc2oc(-c3cc(Br)ccc3Cl)nc2c1)c1cccc([N+](=O)[O-])c1 [Compound 5798] |  | 61.8 | 61.8 | MIC ([1]; 5 h, read-out: MIC100 (μM)): > 240 µM
30 | O=C(Nc1cccc(Oc2ccc3c(c2)C(=O)N(c2ccccc2)C3=O)c1)c1cccc([N+](=O)[O-])c1 [Compound 5799] | > 240 | 175 | 202 ± 38 | 
31 | O=C(Nc1cccc(C(=O)Nc2cccc3ccccc23)c1)c1cccc([N+](=O)[O-])c1 [Compound 5802] | > 240 | 225 | 225 ± 36 | 
32 | Cc1cc(C)c2oc(-c3cccc(NC(=O)/C=C/c4cccc([N+](=O)[O-])c4)c3)nc2c1 [Compound 5806] | > 240 | 67.8 | 68 ± 5 | 
33 | COc1cccc(NC(=O)Nc2nnc(COc3ccc([N+](=O)[O-])cc3)s2)c1 [Compound 5807] | > 240 | 124 | 124 ± 5 | 
34 | O=C(Nc1ccc(Cc2ccc(NC(=O)c3ccc4c(c3)OCO4)cc2)cc1)c1ccc2c(c1)OCO2 [Compound 5818] |  | 65.7 | 65.7 | MIC ([1]; 5 h, read-out: MIC100 (μM)): > 240 µM
35 | NC(=O)c1ccc(NC(=O)c2ccc(Oc3ccc([N+](=O)[O-])cc3Cl)cc2)cc1 [Compound 5821] | > 240 | 104 | 130 ± 37 | 
36 | COc1ccccc1NC(=O)COc1ccc(/C=C(/C#N)c2nc3ccccc3[nH]2)cc1 [Compound 5822] | > 240 | 107 | 178 ± 102 | 
37 | Cc1c(NC(=O)c2ccc(N3CCCC3)c([N+](=O)[O-])c2)cccc1-c1nc2ccccc2[nH]1 [Compound 5830] | > 240 | 198 | 193 ± 8 | 
38 | O=C(NC(=S)Nc1cc(-c2nc3ccccc3[nH]2)ccc1Cl)c1ccccc1[N+](=O)[O-] [Compound 5831] | > 240 | 243 | 243 ± 38 | 
39 | O=C(CSc1nc(Nc2ccccc2)nc(N2CCOCC2)n1)Nc1ccc([N+](=O)[O-])cc1O [Compound 5833] | 15 (≈ 7.25 µg/mL) |  |  | activity against B. anthracis (in words) [1]: good activities
40 | O=C(Nc1ccc(S(=O)(=O)Nc2cccc(C(F)(F)F)c2)cc1)Nc1cccc(Cl)c1 [Compound 5991] |  |  |  | MTD [2]: 10 mg/kg
41 | Nc1ccc(NS(=O)(=O)c2ccc(NC(=O)Nc3ccc(Cl)c(Cl)c3)cc2)cc1 [Compound 6010] |  |  |  | IC50 (IMR90): > 200 µM; IC50 (MDA-MB-436; [3]): 25 µM; IC50 (HCC1937; [4]): 20 µM; IC50 (HEK293): > 200 µM; IC50 (Hep-G2): > 200 µM; IC50 (hNaMNAT-1): > 600 µM; IC50 (BEAS-23): > 200 µM; IC50 (SUM159; [5]): 10 µM
42 | O=[N+]([O-])c1cc(S(=O)(=O)NCc2ccco2)ccc1NNC(=S)Nc1cccc(C(F)(F)F)c1 [Compound 6034] |  |  |  | IC50 (IMR90): 148 µM; IC50 (MDA-MB-436; [3]): 70 µM; IC50 (HCC1937; [4]): 60 µM; IC50 (HEK293): 176 µM; IC50 (Hep-G2): 90 µM; IC50 (hNaMNAT-1): 28 µM; IC50 (BEAS-23): 186 µM; IC50 (SUM159; [5]): 50 µM
43 | COc1cccc(NC(=O)Nc2ccc(S(=O)(=O)Nc3ccc(Cl)c(Cl)c3)cc2)c1 [Compound 6325] |  |  |  | MTD [2]: 50 mg/kg
44 | O=C(Nc1ccc(S(=O)(=O)Nc2ccc(Cl)c(Cl)c2)cc1)Nc1cccc([N+](=O)[O-])c1 [Compound 6333] |  |  |  | MTD [2]: 250 mg/kg
45 | O=C(Nc1ccc(S(=O)(=O)Nc2ccc(Cl)c(Cl)c2)cc1)Nc1ccccc1O [Compound 6399] |  |  |  | IC50 (IMR90): 181 µM; IC50 (HCC1937; [4]): 40 µM; IC50 (HEK293): 163 µM; IC50 (Hep-G2): 84 µM; IC50 (hNaMNAT-1): 19 µM; IC50 (BEAS-23): 93 µM
46 | CCOc1ccc(NS(=O)(=O)c2ccc(NC(=O)CCC(=O)c3ccccc3)cc2)cc1 [Compound 6484] |  |  |  | MTD [2]: > 500 mg/kg
47 | O=C(Nc1ccc(S(=O)(=O)Nc2ccccc2C(F)(F)F)cc1)Nc1cccc([N+](=O)[O-])c1 [Compound 6572] |  |  |  | IC50 (MDA-MB-436; MDA-MB-436, read-out: In Vitro Human Breast Cancer Inhibition (IC50, μM) MDA-MB-436): 35 µM; IC50 (HCC1937; HCC1937, read-out: In Vitro Human Breast Cancer Inhibition (IC50, μM) HCC1937): 35 µM; IC50 (hNaMNAT-1): > 600 µM; IC50 (SUM159; SUM159, read-out: In Vitro Human Breast Cancer Inhibition (IC50, μM) SUM159): 10 µM

From patent publication US20110275635A1 (priority 2009, published 2011)
